According to article PMC10707982, “Solubility and Thermodynamics Data of Cabozantinib Malate in Various Aqueous Solutions of Dimethyl Sulfoxide at Different Temperatures” (Molecules, 2023):

Key:
[1] = Shake flask solubility of CBZM in DMSO aqueous solutions and pure solvents; type: physicochemical; conditions: for Experimental mole fraction solubility (xe): 101.1 kPa
Description: A digital analytical balance (Mettler Toledo, Greifensee, Switzerland) with a sensitivity of 0.10 mg was used to measure the mass of each cosolvent mixture. A series of DMSO aqueous solutions (m = 0.10–0.90), were investigated. Three replications of each cosolvent mixture were taken. CBZM’s solubility values in numerous DMSO aqueous solutions (m = 0.0–1.0) and pure solvents were determined utilizing a shake flask methodology at five distinct temperature and fixed atmospheric pressure. Essentially, extra CBZM crystals were mixed with known amounts of each cosolvent mixture and neat solvents in triplicates. All the mixtures were vortexed for about 5 min. To achieve equilibrium, the resulting mixes were transferred to a WiseBath WSB Shaking Water Bath (Model WSB-18/30/-45, Daihan Scientific Co. Ltd., Seoul, Republic of Korea) for 72 h at 100 rpm for continuous shaking. After the samples reached equilibrium, they were removed from the shaker and centrifuged at 5000 rpm for 30 min at 298.2 K. The uncertainty in water bath temperature was recorded as 0.15 K. The equilibrium time of 72 h was optimized by preliminary experiments. Under preliminary experiments, CBZM solubility was measured at 24, 48, […], 72, and 96 h. […] After the supernatants were separated and diluted with mobile phase (if needed), the CBZM content was evaluated at 244 nm using a previously described HPLC technique. By using their standard formulae found in the literature, CBZM xe values were obtained.

[2] = Apparent thermodynamic analysis of CBZM dissolution (van't Hoff and Gibbs equations) and enthalpy–entropy compensation; type: physicochemical
Description: All of the CBZM’s apparent thermodynamic properties were determined at Thm. The reported equation was used to determine the Thm. Then, 308 K was calculated as the Thm for CBZM. Several thermodynamic parameters were obtained via an apparent thermodynamic analysis. These parameters were computed using the van’t Hoff and Gibbs equations. Using Equation (12) and Thm = 308 K, the ΔsolH^0 data for CBZM in cosolvent mixtures and pure solvents were calculated:(12) ∂ln xe/∂1/T−1/ThmP=−ΔsolH^0/R
The ΔsolH^0 for CBZM was obtained by the plotted van’t Hoff curves between ln xe of CBZM and 1/T−1/Thm .
Furthermore, at Thm = 308 K, the ΔsolG^0 for CBZM in cosolvent combinations and pure solvents was derived utilizing the Krug et al. approach by Equation (13):(13) ΔsolG^0=−RThm×intercept where the intercept values for CBZM in cosolvent combinations and pure solvents were calculated using the van’t Hoff plots depicted in Figure 5.
By Equation (14), the ΔsolS^0 for CBZM in cosolvent mixtures and neat solvents was derived:(14) ΔsolS^0=ΔsolH^0−ΔsolG^0/Thm
An enthalpy–entropy compensation analyses was performed, as previously described, to assess the solvation behavior of CBZM in cosolvent mixtures and neat solvents. Weighted curves of ΔsolH° vs. ΔsolG° were constructed at Thm = 308 K for this experiment.

[3] = parameters: method as in earlier work; conditions: all aqueous solutions, including H2O; cited from earlier work
[4] = parameters: method as in doi:10.1016/j.molliq.2020.115146; conditions: cited from earlier work
[5] = DMSO mass fraction m = 0.0, Thm = 308 K
[6] = DMSO mass fraction m = 0.1, Thm = 308 K
[7] = DMSO mass fraction m = 0.2, Thm = 308 K
[8] = DMSO mass fraction m = 0.3, Thm = 308 K
[9] = DMSO mass fraction m = 0.4, Thm = 308 K
[10] = DMSO mass fraction m = 0.5, Thm = 308 K
[11] = DMSO mass fraction m = 0.6, Thm = 308 K
[12] = DMSO mass fraction m = 0.7, Thm = 308 K
[13] = DMSO mass fraction m = 0.8, Thm = 308 K
[14] = DMSO mass fraction m = 0.9, Thm = 308 K
[15] = DMSO mass fraction m = 1.0, Thm = 308 K

Experimental mole fraction solubility (xe) ([1]; DMSO mass fraction m = 0.0, T = 298.2 K): 2.24 × 10^−7 mole fraction
Experimental mole fraction solubility (xe) ([1]; DMSO mass fraction m = 0.0, T = 303.2 K): 3.37 × 10^−7 mole fraction
Experimental mole fraction solubility (xe) ([1]; DMSO mass fraction m = 0.0, T = 308.2 K): 4.85 × 10^−7 mole fraction
Experimental mole fraction solubility (xe) ([1]; DMSO mass fraction m = 0.0, T = 313.2 K): 6.55 × 10^−7 mole fraction
Experimental mole fraction solubility (xe) ([1]; DMSO mass fraction m = 0.0, T = 318.2 K): 8.53 × 10^−7 mole fraction
Experimental mole fraction solubility (xe) ([1]; DMSO mass fraction m = 0.1, T = 298.2 K): 7.46 × 10^−7 mole fraction
Experimental mole fraction solubility (xe) ([1]; DMSO mass fraction m = 0.1, T = 303.2 K): 1.12 × 10^−6 mole fraction
Experimental mole fraction solubility (xe) ([1]; DMSO mass fraction m = 0.1, T = 308.2 K): 1.52 × 10^−6 mole fraction
Experimental mole fraction solubility (xe) ([1]; DMSO mass fraction m = 0.1, T = 313.2 K): 2.01 × 10^−6 mole fraction
Experimental mole fraction solubility (xe) ([1]; DMSO mass fraction m = 0.1, T = 318.2 K): 2.55 × 10^−6 mole fraction
Experimental mole fraction solubility (xe) ([1]; DMSO mass fraction m = 0.2, T = 298.2 K): 2.48 × 10^−6 mole fraction
Experimental mole fraction solubility (xe) ([1]; DMSO mass fraction m = 0.2, T = 303.2 K): 3.48 × 10^−6 mole fraction
Experimental mole fraction solubility (xe) ([1]; DMSO mass fraction m = 0.2, T = 308.2 K): 4.69 × 10^−6 mole fraction
Experimental mole fraction solubility (xe) ([1]; DMSO mass fraction m = 0.2, T = 313.2 K): 6.00 × 10^−6 mole fraction
Experimental mole fraction solubility (xe) ([1]; DMSO mass fraction m = 0.2, T = 318.2 K): 7.57 × 10^−6 mole fraction
Experimental mole fraction solubility (xe) ([1]; DMSO mass fraction m = 0.3, T = 298.2 K): 8.00 × 10^−6 mole fraction
Experimental mole fraction solubility (xe) ([1]; DMSO mass fraction m = 0.3, T = 303.2 K): 1.11 × 10^−5 mole fraction
Experimental mole fraction solubility (xe) ([1]; DMSO mass fraction m = 0.3, T = 308.2 K): 1.46 × 10^−5 mole fraction
Experimental mole fraction solubility (xe) ([1]; DMSO mass fraction m = 0.3, T = 313.2 K): 1.83 × 10^−5 mole fraction
Experimental mole fraction solubility (xe) ([1]; DMSO mass fraction m = 0.3, T = 318.2 K): 2.25 × 10^−5 mole fraction
Experimental mole fraction solubility (xe) ([1]; DMSO mass fraction m = 0.4, T = 298.2 K): 2.66 × 10^−5 mole fraction
Experimental mole fraction solubility (xe) ([1]; DMSO mass fraction m = 0.4, T = 303.2 K): 3.48 × 10^−5 mole fraction
Experimental mole fraction solubility (xe) ([1]; DMSO mass fraction m = 0.4, T = 308.2 K): 4.42 × 10^−5 mole fraction
Experimental mole fraction solubility (xe) ([1]; DMSO mass fraction m = 0.4, T = 313.2 K): 5.49 × 10^−5 mole fraction
Experimental mole fraction solubility (xe) ([1]; DMSO mass fraction m = 0.4, T = 318.2 K): 6.59 × 10^−5 mole fraction
Experimental mole fraction solubility (xe) ([1]; DMSO mass fraction m = 0.5, T = 298.2 K): 8.61 × 10^−5 mole fraction
Experimental mole fraction solubility (xe) ([1]; DMSO mass fraction m = 0.5, T = 303.2 K): 1.12 × 10^−4 mole fraction
Experimental mole fraction solubility (xe) ([1]; DMSO mass fraction m = 0.5, T = 308.2 K): 1.38 × 10^−4 mole fraction
Experimental mole fraction solubility (xe) ([1]; DMSO mass fraction m = 0.5, T = 313.2 K): 1.69 × 10^−4 mole fraction
Experimental mole fraction solubility (xe) ([1]; DMSO mass fraction m = 0.5, T = 318.2 K): 1.98 × 10^−4 mole fraction
Experimental mole fraction solubility (xe) ([1]; DMSO mass fraction m = 0.6, T = 303.2 K): 3.47 × 10^−4 mole fraction
Experimental mole fraction solubility (xe) ([1]; DMSO mass fraction m = 0.6, T = 308.2 K): 4.21 × 10^−4 mole fraction
Experimental mole fraction solubility (xe) ([1]; DMSO mass fraction m = 0.6, T = 313.2 K): 4.95 × 10^−4 mole fraction
Experimental mole fraction solubility (xe) ([1]; DMSO mass fraction m = 0.6, T = 318.2 K): 5.79 × 10^−4 mole fraction
Experimental mole fraction solubility (xe) ([1]; DMSO mass fraction m = 0.7, T = 298.2 K): 9.33 × 10^−4 mole fraction
Experimental mole fraction solubility (xe) ([1]; DMSO mass fraction m = 0.7, T = 303.2 K): 1.12 × 10^−3 mole fraction
Experimental mole fraction solubility (xe) ([1]; DMSO mass fraction m = 0.7, T = 308.2 K): 1.31 × 10^−3 mole fraction
Experimental mole fraction solubility (xe) ([1]; DMSO mass fraction m = 0.7, T = 313.2 K): 1.53 × 10^−3 mole fraction
Experimental mole fraction solubility (xe) ([1]; DMSO mass fraction m = 0.7, T = 318.2 K): 1.72 × 10^−3 mole fraction
Experimental mole fraction solubility (xe) ([1]; DMSO mass fraction m = 0.8, T = 298.2 K): 3.09 × 10^−3 mole fraction
Experimental mole fraction solubility (xe) ([1]; DMSO mass fraction m = 0.8, T = 303.2 K): 3.53 × 10^−3 mole fraction
Experimental mole fraction solubility (xe) ([1]; DMSO mass fraction m = 0.8, T = 308.2 K): 3.99 × 10^−3 mole fraction
Experimental mole fraction solubility (xe) ([1]; DMSO mass fraction m = 0.8, T = 313.2 K): 4.55 × 10^−3 mole fraction
Experimental mole fraction solubility (xe) ([1]; DMSO mass fraction m = 0.8, T = 318.2 K): 5.04 × 10^−3 mole fraction
Experimental mole fraction solubility (xe) ([1]; DMSO mass fraction m = 0.9, T = 298.2 K): 1.07 × 10^−2 mole fraction
Experimental mole fraction solubility (xe) ([1]; DMSO mass fraction m = 0.9, T = 303.2 K): 1.15 × 10^−2 mole fraction
Experimental mole fraction solubility (xe) ([1]; DMSO mass fraction m = 0.9, T = 308.2 K): 1.26 × 10^−2 mole fraction
Experimental mole fraction solubility (xe) ([1]; DMSO mass fraction m = 0.9, T = 313.2 K): 1.38 × 10^−2 mole fraction
Experimental mole fraction solubility (xe) ([1]; DMSO mass fraction m = 0.9, T = 318.2 K): 1.52 × 10^−2 mole fraction
Experimental mole fraction solubility (xe) ([1]; DMSO mass fraction m = 1.0, T = 298.2 K): 3.29 × 10^−2 mole fraction
Experimental mole fraction solubility (xe) ([1]; DMSO mass fraction m = 1.0, T = 303.2 K): 3.50 × 10^−2 mole fraction
Experimental mole fraction solubility (xe) ([1]; DMSO mass fraction m = 1.0, T = 308.2 K): 3.78 × 10^−2 mole fraction
Experimental mole fraction solubility (xe) ([1]; DMSO mass fraction m = 1.0, T = 313.2 K): 4.02 × 10^−2 mole fraction
Experimental mole fraction solubility (xe) ([1]; DMSO mass fraction m = 1.0, T = 318.2 K): 4.38 × 10^−2 mole fraction
Solubility classification in DMSO ([1]; neat DMSO, 298.2–318.2 K): freely soluble
Solubility classification in H2O ([1]; neat H2O, 298.2–318.2 K): practically insoluble
Apparent standard Gibbs energy ΔsolG^0 [2, 5]: 8.929 kcal/mol
Apparent standard enthalpy ΔsolH^0 [2, 5]: 12.6 kcal/mol
Apparent standard entropy ΔsolS^0 [2, 5]: 49.82 J mol^−1 K^−1
Apparent standard Gibbs energy ΔsolG^0 [2, 6]: 8.224 kcal/mol
Apparent standard enthalpy ΔsolH^0 [2, 6]: 11.48 kcal/mol
Apparent standard entropy ΔsolS^0 [2, 6]: 44.21 J mol^−1 K^−1
Apparent standard Gibbs energy ΔsolG^0 [2, 7]: 7.533 kcal/mol
Apparent standard enthalpy ΔsolH^0 [2, 7]: 10.47 kcal/mol
Apparent standard entropy ΔsolS^0 [2, 7]: 39.92 J mol^−1 K^−1
Apparent standard Gibbs energy ΔsolG^0 [2, 8]: 6.84 kcal/mol
Apparent standard enthalpy ΔsolH^0 [2, 8]: 9.696 kcal/mol
Apparent standard entropy ΔsolS^0 [2, 8]: 38.80 J mol^−1 K^−1
Apparent standard Gibbs energy ΔsolG^0 [2, 9]: 6.152 kcal/mol
Apparent standard enthalpy ΔsolH^0 [2, 9]: 8.559 kcal/mol
Apparent standard entropy ΔsolS^0 [2, 9]: 32.71 J mol^−1 K^−1
Apparent standard Gibbs energy ΔsolG^0 [2, 10]: 5.452 kcal/mol
Apparent standard enthalpy ΔsolH^0 [2, 10]: 7.835 kcal/mol
Apparent standard entropy ΔsolS^0 [2, 10]: 32.35 J mol^−1 K^−1
Apparent standard Gibbs energy ΔsolG^0 [2, 11]: 4.768 kcal/mol
Apparent standard enthalpy ΔsolH^0 [2, 11]: 6.697 kcal/mol
Apparent standard entropy ΔsolS^0 [2, 11]: 26.18 J mol^−1 K^−1
Apparent standard Gibbs energy ΔsolG^0 [2, 12]: 4.07 kcal/mol
Apparent standard enthalpy ΔsolH^0 [2, 12]: 5.779 kcal/mol
Apparent standard entropy ΔsolS^0 [2, 12]: 23.21 J mol^−1 K^−1
Apparent standard Gibbs energy ΔsolG^0 [2, 13]: 3.382 kcal/mol
Apparent standard enthalpy ΔsolH^0 [2, 13]: 4.656 kcal/mol
Apparent standard entropy ΔsolS^0 [2, 13]: 17.30 J mol^−1 K^−1
Apparent standard Gibbs energy ΔsolG^0 [2, 14]: 2.674 kcal/mol
Apparent standard entropy ΔsolS^0 [2, 14]: 9.05 J mol^−1 K^−1
Apparent standard Gibbs energy ΔsolG^0 [2, 15]: 2 kcal/mol
Apparent standard enthalpy ΔsolH^0 [2, 15]: 2.732 kcal/mol
Apparent standard entropy ΔsolS^0 [2, 15]: 9.91 J mol^−1 K^−1
Solvation-driven process (enthalpy–entropy compensation) ([2]; all cosolvent combinations and pure solvents, Thm = 308 K): enthalpy-driven
Nature of dissolution ([2]; all cosolvent combinations, including neat solvents): endothermic and entropy-driven
SMILES: COc1cc2nccc(Oc3ccc(NC(=O)C4(C(=O)Nc5ccc(F)cc5)CC4)cc3)c2cc1OC [CBZM, Cabozantinib malate]
Solubility in aqueous solutions [3]: nearly insoluble
Total HSP (δt) [4]: 25.50 MPa^1/2
